Patent US9227956B2 (Pfizer Inc., priority 2013, dated 2016)

Key:
human PCSK9 [1] = experiment: Cell Free PCSK9 Assay (PCSK9-luciferase RNA translated in HeLa cell lysate); format: biochemical; settings: 30° C. for 45 minutes, luciferase readout, top concentration 100 μM
PCSK9 [2] = experiment: PCSK9 lowering in sandwich culture human hepatocytes (SCHH); format: cell-based; settings: maximum response versus vehicle
Experimental: Test compound in-vitro pharmacokinetic and pharmacodynamic relationships were measured in sandwich culture primary cryopreserved human hepatocytes. Within these studies SCHH cells (BD Biosciences IVT) were thawed at 37° C. then placed on ice, after which the cells were added to pre-warmed (37° C.) In VitroGRO-HT media and centrifuged at 50×g for 3 min. The cell pellet was re-suspended to 0.8×10^6 cells/mL in InVitroGRO-CP plating medium and cell viability determined by trypan blue exclusion. On day 1, hepatocyte suspensions were plated in BioCoat 96-well plates at a density of 80000 cells/well in a volume of 0.1 mL/well. After 18 to 24 hours of incubation at 37° C. in 5% CO2, cells were overlaid with ice-cold 0.25 mg/mL BD Matrigel Matrix Phenol Red-Free in incubation medium at 0.1 mL/well. Cultures were maintained at 37° C. in 5% CO2 in InVitroGRO-HI (FBS-free media), which was replaced every 24 hours and time course treatments were initiated on day 5. Prior to compound treatment cell plates were washed 3 times with 0.1 mL/well InVitroGRO-HI and 0.09 mL of media was added back in preparation for the compound additions. 1 uL of either DMSO or compound DMSO stocks at 30 mM, 10 mM, 3 mM and 1 mM were stamped into 96 well V bottom polypropylene plates. 0.099 mL of media was added to the compound plate and mixed thoroughly before the addition of 0.010 mL from the interim compound plate to the cell plate. […] At the indicated time, 0.08 mL of media was removed from the cell plates and frozen for subsequent analysis of secreted PCSK9 by AlphaLISA and for determination of drug levels in the media by liquid chromatography-tandem mass spectrometry (LC-MS/MS). The remaining media was then aspirated and the cell layers were washed 3× with ice cold Hanks Balanced Salt Solution (HBSS) under shaking conditions to remove the matrigel overlay and plates were then stored at −20° C. for subsequent determination of drug levels in the cells by LC-MS/MS. AlphaLISA determination of PCSK9 protein levels within the conditioned media was performed ultilizing the identical reagents and detection protocols described above for the WT7 cells.

PCSK9 [3] = experiment: Global Proteomic Assay (SILAC), PCSK9 protein expression in conditioned media; format: cell-based, human; settings: Huh7 cells
Experimental: At the end of the indicated time points, media was removed and protease/phosphatase inhibitors added prior to freezing at −80° C. Cell layers were rinsed with PBS before adding cell dissociation buffer to detach the cells, cells were collected by rinsing with PBS and spun at 1000 rpm for 5 minutes. The cell pellet was resuspended in PBS for washing, spun at 1000 rpm for 5 minutes and the supernatant aspirated. The cell layer was then frozen at −80° C. and both the media and cell pellet were subjected to proteomic analysis.
(§1) For proteomic analysis of secreted proteins, equal volume of the conditioned media from light, medium, and heavy cells was mixed, followed by depletion of bovine serum albumin by anti-BSA agarose beads. The resulting proteins were subsequently concentrated using 3 KDa MWCO spin columns, reduced with dithiothreitol and alkylated with iodoacetamide.
The proteins derived from conditioned media and cell pellets were subsequently fractionated by SDS-PAGE. […]
(§2) The peptide mixtures were reconstituted in 0.1% formic acid. […] Peptide identification and relative protein quantification were carried out by searching the mass spectra against the human IPI database using Mascot search engine on Proteome Discoverer 1.3. […] Changes in protein expression upon compound treatment were calculated from the relative intensity of isotope-labeled and unlabeled peptides derived from that protein.

Huh7 cells = experiment: Global Proteomic Assay (SILAC), non-PCSK9 proteins with decreased expression; format: cell-based, human
Experimental: Cell layers were rinsed with PBS before adding cell dissociation buffer to detach the cells, cells were collected by rinsing with PBS and spun at 1000 rpm for 5 minutes. The cell pellet was resuspended in PBS for washing, spun at 1000 rpm for 5 minutes and the supernatant aspirated. The cell layer was then frozen at −80° C. and both the media and cell pellet were subjected to proteomic analysis.
as §1
For the analysis of cellular proteins, cell pellets were lysed in SDS-PAGE loading buffer in the presence of protease/phosphatase inhibitor cocktails. Cell lysates were centrifuged at 12000×g at 4° C. for 10 min. The resulting supernatants were collected, and protein concentrations were measured by BCA assay. Equal amount proteins in the light, medium, and heavy cell lysates were combined, reduced with dithiothreitol and alkylated with iodoacetamide.
The proteins derived from conditioned media and cell pellets were subsequently fractionated by SDS-PAGE. The gels were stained with Coomassie blue. After destaining, the gels were cut into 12-15 bands. Proteins were in-gel digested by trypsin overnight, after which peptides were extracted from the gels with CH3CN:1% formic acid (1:1, v/v). The resulting peptide mixtures were desalted with C18 Stage-Tips, dried in speedvac and stored at −20° C. until further analysis.
as §2

human PCSK9 [4] = experiment: PCSK9 AlphaLISA assay, PCSK9 lowering in WT7 cells; settings: WT7 cells (Huh7 stably over-expressing human PCSK9); secreted PCSK9 by AlphaLISA; overnight incubation (16-24 h); top concentration 20 μM; read-out: Cell Based PCSK9 IC50
PCSK9 [5] = experiment: PCSK9 lowering in sandwich culture human hepatocytes (SCHH); format: cell-based; settings: maximum response versus vehicle; at 8 h at 100 μM

Row | SMILES | IC50 (human PCSK9 [1]) [µM] | Sandwich Culture Hepatocyte (SCHH) PCSK9 Lowering (PCSK9 [2]; at 8 h at 30 μM) [% at 8 h at 30 μM] | IC50 (human PCSK9 [4]) [µM] | Sandwich Culture Hepatocyte (SCHH) PCSK9 Lowering (PCSK9 [5]) | Sandwich Culture Hepatocyte (SCHH) PCSK9 Lowering (PCSK9 [2]; at 6 h at 30 uM) [% at 6 h at 30 uM] | decrease of PCSK9 protein expression in the conditioned media (PCSK9 [3]; 16 hours of treatment, 0.3 μM) [fold] | cellular proteins significantly decreased (Huh7 cells; 2 proteins (Apolipoprotein C3, Cadherin 1) of greater than 3000 cellular proteins) [%] | additional proteins with significant reduction in expression (media and cells) (Huh7 cells; 4 of 4083 proteins) [%] | PCSK9 in conditioned media relative to vehicle (PCSK9 [3]; 10 μM, 4 and 16 h post-treatment) | additional proteins in conditioned media with significant decrease in expression (Huh7 cells; 10 μM, 4 and 16 h, two proteins (Apolipoprotein A2, Cadherin 1) of approx. 1500)
1 | O=C(c1ccc(-n2nnc3cccnc32)cc1)N(c1ncccc1Cl)[C@@H]1CCCNC1 [Example 16, N-(3-chloropyridin-2-yl)-N-[(3R)-piperidin-3-yl]-4-(3H-[1,2,3]triazolo[4,5-b]pyridin-3-yl)benzamide] | 0.52 | 87 |  |  |  | 2 | 0.067 | 0.098 |  | 
2 | Cn1ncc(-c2ccc(C(=O)N(c3ncccc3Cl)[C@@H]3CCCNC3)cc2)c1C(=O)O [Example 7, 4-(4-{(3-chloropyridin-2-yl)[(3R)-piperidin-3-yl]carbamoyl}phenyl)-1-methyl-1H-pyrazole-5-carboxylic acid] | 18 |  | > 20 | 26% at 8 h at 100 μM |  |  |  |  |  | 
3 | Cc1cccnc1N(C(=O)c1ccc(-c2cnn(C)c2-c2noc(=O)[nH]2)cc1)[C@@H]1CCCNC1 [Example 18, 4-[1-methyl-5-(5-oxo-4,5-dihydro-1,2,4-oxadiazol-3-yl)-1H-pyrazol-4-yl]-N-(3-methylpyridin-2-yl)-N-[(3R)-piperidin-3-yl]benzamide] | 5.61 |  | > 20 | 15% at 8 h at 100 uM |  |  |  |  |  | 
4 | CCC(=O)OC(C(C)C)n1nnc(-c2c(-c3ccc(C(=O)N(c4ncccc4C)[C@@H]4CCCNC4)cc3)cnn2C)n1 (single isomer, unassigned) [Example 49] | 15.4 |  | > 20 |  | 0 |  |  |  |  | 

Now from value to compound, other results behind:

Row | IC50 (human PCSK9 [1]) [µM] | Sandwich Culture Hepatocyte (SCHH) PCSK9 Lowering (PCSK9 [2]; at 8 h at 30 μM) [% at 8 h at 30 μM] | IC50 (human PCSK9 [4]) [µM] | Sandwich Culture Hepatocyte (SCHH) PCSK9 Lowering (PCSK9 [5]) | Sandwich Culture Hepatocyte (SCHH) PCSK9 Lowering (PCSK9 [2]; at 6 h at 30 uM) [% at 6 h at 30 uM] | SMILES | decrease of PCSK9 protein expression in the conditioned media (PCSK9 [3]; 16 hours of treatment, 0.3 μM) [fold] | cellular proteins significantly decreased (Huh7 cells; 2 proteins (Apolipoprotein C3, Cadherin 1) of greater than 3000 cellular proteins) [%] | additional proteins with significant reduction in expression (media and cells) (Huh7 cells; 4 of 4083 proteins) [%] | PCSK9 in conditioned media relative to vehicle (PCSK9 [3]; 10 μM, 4 and 16 h post-treatment) | additional proteins in conditioned media with significant decrease in expression (Huh7 cells; 10 μM, 4 and 16 h, two proteins (Apolipoprotein A2, Cadherin 1) of approx. 1500)
5 | 3.05 |  | > 20 | 63% at 8 h at 100 uM |  | Cc1cccnc1N(C(=O)c1ccc(-c2cnn(C)c2-c2nn[nH]n2)cc1)[C@@H]1CCCNC1 [Example 17, N-(3-methylpyridin-2-yl)-4-[1-methyl-5-(2H-tetrazol-5-yl)-1H-pyrazol-4-yl]-N-[(3R)-piperidin-3-yl]benzamide] |  |  |  |  | 
6 | 5 | 58 | 10.7 |  |  | CCOC(=O)O[C@H](C)OC(=O)c1c(-c2ccc(C(=O)N(c3ncccc3Cl)[C@@H]3CCCNC3)cc2)cnn1C [Example 15b, (1R)-1-[(ethoxycarbonyl)oxy]ethyl 4-(4-{(3-chloropyridin-2-yl)[(3R)-piperidin-3-yl]carbamoyl}phenyl)-1-methyl-1H-pyrazole-5-carboxylate] |  |  |  | significantly reduced | approx. 0.13%
7 | 7.38 |  | > 20 |  | 19 | Cc1cccnc1N(C(=O)c1ccc(-c2cnn(C)c2-c2nnn(C(OC(=O)OC(C)C)C(C)C)n2)cc1)[C@@H]1CCCNC1 (single isomer, unassigned) [Example 42] |  |  |  |  | 
8 | 19.8 |  | > 19.2 |  | 40 | Cc1cccnc1N(C(=O)c1ccc(-c2cnn(C)c2-c2nnn(C(OC(=O)C(C)C)C(C)C)n2)cc1)[C@@H]1CCCNC1 (single isomer, unassigned) [Example 55] |  |  |  |  | 
